According to patent US12171230B2, “Herbicidal compositions” (Bayer Aktiengesellschaft, priority 2018, dated 2024):
Several values for one entry are separate records, joined by “and”; a condition that tells them apart may be missing. Equal values may be shown once.

Tests used:
Assay type in all cases: in vivo
Veronica hederifolia = test: Post-emergence herbicidal action against Veronica hederifolia; settings: 28 DAT; 450 g a.i./ha
Bromus sterilis = test: Post-emergence herbicidal action against Bromus sterilis
Centaurea cyano = test: Post-emergence herbicidal action against Centaurea cyano
Outline: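 Greenhouse pot-grown plants sprayed post-emergence at the three-leaf stage, three weeks after sowing, with spray-powder or emulsion-concentrate formulations at various dosages in 300 to 800 l/ha water on green parts.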

Echinochloa crus-galli = test: Post-emergence herbicidal action against Echinochloa crus-galli; settings: 21 DAT; 50 g a.i./ha
Protocol: (§1) When the observed efficacies exceed the formal sum total of the values of the tests with individual applications, they also exceed the expected value according to Colby, which is calculated using the formula below and is likewise regarded as an indication of synergism (cf. S. R. Colby; in Weeds 15 (1967) p. 20 to 22): E^C=A+B−([…])
(§2) Here: • A=efficacy of the active compound (A) in % at an application rate of a g a.i./ha; • B=efficacy of the active compound (B) in % at an application rate of b g a.i./ha; • E^C=expected value of the effect of the combination (A)+(B) in % at the combined application rate a+b g a.i./ha.
(§3) Seeds or rhizome pieces of mono- and dicotyledonous weeds are placed in sandy loam in pots, covered with soil and grown in a greenhouse under good growth conditions (temperature, air humidity, water supply). Three weeks after sowing, the test plants were treated at the three-leaf stage with the compositions according to the invention. The compositions according to the invention formulated as spray powders or as emulsion concentrates were sprayed onto the green plant parts in various dosages with an application rate of 300 to 800 l/ha of water (equivalent). After the test plants have been left to stand in the greenhouse under optimal growth conditions for about 3 to 4 weeks, the action of the preparations is scored visually in comparison to untreated controls. The compositions according to the invention also have good post-emergence herbicidal activity against a broad spectrum of economically important gramineous and broadleaf weeds.

Lamium purpureum = test: Post-emergence herbicidal action against Lamium purpureum
Outline: (§4)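 Post-emergence foliar application: sandy-loam pots, greenhouse, treatment at three-leaf stage, 300–800 l/ha spray volume. Readout is visual % effect at 3–4 weeks, compared with the Colby expected value for mixtures.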

Bidens pilosa = test: Post-emergence herbicidal action against Bidens pilosa; settings: 21 DAT
Outline: as §4

Kochia scoparia = test: Post-emergence herbicidal action against Kochia scoparia; settings: 21 DAT
Poa annua = test: Post-emergence herbicidal action against Poa annua
Outline: as §4

Sorghum halepense = test: Post-emergence herbicidal action against Sorghum halepense; settings: 21 DAT
Protocol: as §1, §2, §3

Alopecurus myosuroides = test: Post-emergence herbicidal action against Alopecurus myosuroides
Amaranthus palmeri = test: Post-emergence herbicidal action against Amaranthus palmeri; settings: 21 DAT; (res.); 50 g a.i./ha
Outline: as §4

Polygonum convolvulus = test: Post-emergence herbicidal action against Polygonum convolvulus; settings: 21 DAT; 50 g a.i./ha
Matricaria inodora = test: Post-emergence herbicidal action against Matricaria inodora
Lolium rigidum = test: Post-emergence herbicidal action against Lolium rigidum
Phalaris minor = test: Post-emergence herbicidal action against Phalaris minor
Digitaria sanguinalis = test: Post-emergence herbicidal action against Digitaria sanguinalis; settings: 21 DAT; 50 g a.i./ha
Outline: as §4

O=C(O)CNCP(=O)(O)O [(B7.5) Glyphosate]
Herbicidal action (Veronica hederifolia): 90%
Herbicidal action (Bromus sterilis; 14 DAT, 50 g a.i./ha): 30%
Herbicidal action (Bromus sterilis; 28 DAT, 150 g a.i./ha): 40%
Herbicidal action (Centaurea cyano; 14 DAT, 50 g a.i./ha): 30%
Herbicidal action (Centaurea cyano; 14 DAT, 150 g a.i./ha): 60%
Herbicidal action (Centaurea cyano; 28 DAT, 50 g a.i./ha): 30%
Herbicidal action (Centaurea cyano; 28 DAT, 150 g a.i./ha): 60%
Herbicidal action (Centaurea cyano; 28 DAT, 450 g a.i./ha): 85%
Herbicidal action (Echinochloa crus-galli): 45%
Herbicidal action (Lamium purpureum; 14 DAT, 50 g a.i./ha): 50%
Herbicidal action (Lamium purpureum; 28 DAT, 50 g a.i./ha): 30%
Herbicidal action (Lamium purpureum; 28 DAT, 150 g a.i./ha): 40%
Herbicidal action (Lamium purpureum; 28 DAT, 450 g a.i./ha): 75%
Herbicidal action (Bidens pilosa; 150 g a.i./ha): 75%
Herbicidal action (Bidens pilosa; 450 g a.i./ha): 85%
Herbicidal action (Kochia scoparia; 50 g a.i./ha): 35%
Herbicidal action (Kochia scoparia; 150 g a.i./ha): 20%
Herbicidal action (Poa annua; 14 DAT, 50 g a.i./ha): 20%
Herbicidal action (Poa annua; 28 DAT, 50 g a.i./ha): 30%
Herbicidal action (Poa annua; 28 DAT, 150 g a.i./ha): 50% and 60%
Herbicidal action (Poa annua; 28 DAT, 450 g a.i./ha): 60%
Herbicidal action (Sorghum halepense; 50 g a.i./ha): 30%
Herbicidal action (Sorghum halepense; 150 g a.i./ha): 70%
Herbicidal action (Sorghum halepense; 450 g a.i./ha): 85%
Herbicidal action (Alopecurus myosuroides; 14 DAT, 50 g a.i./ha): 30%
Herbicidal action (Alopecurus myosuroides; 28 DAT, 50 g a.i./ha): 10%
Herbicidal action (Alopecurus myosuroides; 28 DAT, 150 g a.i./ha): 30%
Herbicidal action (Alopecurus myosuroides; 28 DAT, 450 g a.i./ha): 60%
Herbicidal action (Amaranthus palmeri): 60%
Herbicidal action (Polygonum convolvulus): 10%
Herbicidal action (Matricaria inodora; 14 DAT, 50 g a.i./ha): 40% and 50%
Herbicidal action (Matricaria inodora; 28 DAT, 450 g a.i./ha): 80%
Herbicidal action (Lolium rigidum; 14 DAT, 50 g a.i./ha): 40%
Herbicidal action (Lolium rigidum; 14 DAT, resistant biotype, 50 g a.i./ha): 20%
Herbicidal action (Lolium rigidum; 28 DAT, 50 g a.i./ha): 30%
Herbicidal action (Lolium rigidum; 28 DAT, 150 g a.i./ha): 60%
Herbicidal action (Phalaris minor; 14 DAT, 50 g a.i./ha): 30%
Herbicidal action (Phalaris minor; 14 DAT, 450 g a.i./ha): 80%
Herbicidal action (Phalaris minor; 28 DAT, 450 g a.i./ha): 30%
Herbicidal action (Digitaria sanguinalis): 80%
